This is an account of results in US10065965B2, “Imidazo[1,2-B][1,2,4]triazine derivatives as antiparasitic agents” (GlaxoSmithKline Intellectual Property Development Limited, priority 2015, dated 2018).

Data set [1] concerns Leishmania donovani. Briefly: Assay 5 Leishmania donovani intracellular assay (eGFP amastigotes in THP-1 cells). Format: cell-based. The conditions noted are these: 96 h, read-out: pEC50 value against Leishmania donovani (converted). The procedure: Compounds were dispensed into black 384-well assay plates (Greiner) by acoustic dispensing (LabCyte ECHO). For potency determinations, eleven-point, one in three dilution curves were generated, with a top concentration of 50 μM. THP-1 human monocytes cells were dispensed in T225 tissue culture flasks and differentiated using 30 nM of PMA, after 24 hours they were infected overnight using Leishmania donovani expressing Green Fluorescent Protein (eGFP) amastigotes in the same T225 tissue culture flasks at a multiplicity of infection of 10. Next, any remaining free amastigotes were washed away with PBS and the infected THP-1 cells were harvested by trypsinisation. The infected cells were then plated into 384-well plates containing the compounds to be tested, at 3000 cells per well in RPMI media with 2% FBS and 25 mM Sodium bicarbonate. After 96 h incubation at 37° C. in presence of 5% CO2, the plates were fixed with 4% formaldehyde for 30 minutes, washed with PBS and stained with 0.1 mg/mL of DAPI for 30 minutes and washed again with PBS. The plates were imaged on a Perkin Elmer Opera high-content imaging system using a 20× air objective with two expositions, one for DAPI stain and other for eGFP. Images were analysed using the Acapella building blocks system (Perkin Elmer). […]

Data set [2] can be described thus: Assay 4 solubility assay, ChemiLuminescent Nitrogen Detection (CLND). The format is physicochemical. The conditions noted are these: phosphate buffered saline, pH 7.4, aqueous buffer, kinetic from dmso stock, pH 7.4 PBS, from 10 mM DMSO stock, 1 h at room temperature. In short, it runs like this:
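Kinetic solubility: 10 mM DMSO stock diluted 5 µl into 100 µl pH 7.4 PBS, incubated 1 h at room temperature, then filtered. Filtrate quantified by HPLC with chemiluminescent nitrogen detection against ondansetron and caffeine standards; solubility in µM by linear-regression calibration.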

Each structure is given as a SMILES string. Values after ≈ are worked out from the molar mass of the structure shown.

In general, solubility refers to how much of the substance goes into solution per volume. Read a low solubility as little dissolved substance. Turning to `O=C(Nc1ccc(F)c(-c2cn3nc(N4CCOCC4)cnc3n2)c1)N1CCCC1` [Example 1, N-(4-fluoro-3-(2-morpholinoimidazo[1,2-b][1,2,4]triazin-6-yl)phenyl)pyrrolidine-1-carboxamide], the EC50 in data set [1] is 158 nM. In data set [2], this compound yielded a solubility at 1 h of 100 to 416 µM (≈ 41.1 to 171 µg/mL).
